Measured values reported in patent US12049444B2, “Monomethyl fumarate precursor drug compounds and pharmaceutical compositions thereof” (AGATHONBIO CO., LTD., priority 2019, dated 2024).
Where a name gives a salt, the structure may show the parent alone.

Tests used:
[1] = cited from earlier work
[2] = rat, in vivo, po, 0.139 mmol/kg
Method: The test compounds and control compounds were each prepared in the same way and administered at a dose of 0.139 mmol/kg to rats, and after blood was collected at a predetermined time, plasma was separated. Analysis of the drug was performed using HPLC (XBridge column C18, Waters, mobile phase 0.1% formic acid:acetonitrile (30:70, %/%)) and MS/MS (ESI positive, MRM). Each commercial standard solution was mixed with rat blank plasma at a ratio of 9:1 to prepare standard solutions and calibrate at concentrations of 5, 50, 100, 500, 100 and 5,000 ng/ml. In addition, the QC sample was prepared at 100, 750 and 2,500 ng/ml concentrations by mixing rat blank plasma and QC standard solution in a 9:1 ratio. […] And the concentration of the active ingredient in rat plasma, that is, monomethyl fumarate, was quantified by applying the previously verified assay. For pharmacokinetic parameters, WinNonlin 5.2 (Pharsight, USA) program was used, and AUC0-t, AUC0-∞, Cmax, Tmax, and t1/2 were calculated by noncompartment modeling (best fit). Pharmacokinetic parameter results were expressed as mean (Mean) and standard deviation (SD), and statistically processed using the SPSS program (Statistical Package for the Social Sciences, 10.0K, USA).

Compound	safety in phase 1 clinical trial [1]	AUC0-24 [2]
COC(=O)/C=C/C(=O)OCCN1C(=O)CCC1=O [ALKS8700, diroximel fumarate]	proven to be safe	
CCN(CC)C(=O)COC(=O)/C=C/C(=O)OC [Reference Example 1, 2-(diethylamino)-2-oxoethyl Methyl Fumarate]	proven to be safe	8280 ng·h/mL
